Reference: patent US5594103A, “Lantibiotics similar to nisin a” (Stichting Nederlands Instituut Voor Zuivelonderzoek (NIZO), priority 1991, dated 1997)
Values after ≈ are worked out from the molar mass of the structure shown.

Experiments:
S. thermophilus Rs [1] = assay: minimum inhibitory concentration in exponentially growing cultures; type: cell-based; details: 37° C., whey permeate containing 0.2% yeast extract
From the text: (§1) The antimicrobial activity of nisin Z was compared with that of nisin A. In this case, and for further comparisons of the two lantibiotics, use was made of preparations which had been purified with the aid of RP-HPLC [see above] and for which the precise amounts of lantibiotic had been determined by determining the absorption at 220 nm. […] The difference comprised both the shape and the gradient of the dose/response curve which relates the amount of lantibiotic added and the diameter of the inhibition zones. In this context it should be pointed out that nisin concentrations which are used in practice are always higher than 2.5 μg/ml [Delves-Broughton, Food Manufacture, March 1987 pp. 63-64]. so that measurements at lower concentrations are more of academic than of practical interest. […] Milk Dairy J., 15 (1961) 127-132]. […] A differentiation between these is made by determining the minimum inhibitory concentrations (MIC) of nisin Z and nisin A which effected growth inhibition in the case of the microorganisms used. In this determination use was also made of M. flavus DSM1719 and S. thermophilus Rs cultured at 37° C. in, respectively, nutrient broth (Difco) and whey permeate containing 0.2% yeast extract. […]

M. flavus DSM1719 = assay: as above; type: cell-based; details: 37° C., nutrient broth
From the text: as §1

[2] = test system: Strepococcus thermophilus (S.t.) strain 3218; assay: MIC bioassay from OD600nm inhibition curves; type: cell-based; details: 3 hours at 37° C., without shaking; less than 1% increase in OD600nm
Experimental: (§2) The antimicrobial activities referred to above were measured in a bioassay using Micrococcus flavus (M. f.) strain […], Bacillus cereus (B.c.) strain 5227 and Strepococcus thermophilus (S.t.) strain 3218 as indicator strains. Minimum inhibitory concentration (MIC) values were determined in the following way. Cultures of indicator organisms grown overnight were diluted to OD600nm values or 0.05 (M.f.) or 0.025 (S.t. and B.c.) and divided into 10 5 ml portions in tubes. These tubes were inoculated with various amounts of nisin A or (mutant) nisin Z and incubated aerobically under the following conditions (M.f.: 8 hours at 30° C., shaken; S.t.: 3 hours at 37° C., without shaking; B.c.: 6 hours at 30° C., shaken). The OD600nm was then measured. Without the addition of nisin, the final OD600nm values were approximately 1.2 for M.f., 0.5 for S.t. and 0.8 for B.c. All experiments were carried out in triplicate. The MIC values were determined from the inhibition curves by calculating the minimum concentration of (mutant) nisin at which less than a 1% increase in the OD600nm occurred. The solubilities of nisin A, nisin Z and the mutants N27K-nisin Z and H31K-nisin Z were determined in the range between pH 6.0 and pH 7.5. It can be seen from the results that in this range nisin Z is 1.5 to 2 times more soluble than nisin A and that the nisin Z mutants having an additional positive charge are 5 to 10 times more soluble than nisin A (Table 2).

[3] = test system: Bacillus cereus (B.c.) strain 5227; assay: MIC bioassay from OD600nm inhibition curves; type: cell-based; details: 6 hours at 30° C., shaken; less than 1% increase in OD600nm
Experimental: as §2

[4] = test system: Micrococcus flavus (M. f.) strain DSM 1790; assay: MIC bioassay from OD600nm inhibition curves; type: cell-based; details: 8 hours at 30° C., shaken; less than 1% increase in OD600nm
Experimental: as §2

solubility determination = type: physicochemical; details: for Solubility: 0.15M NaCl, room temperature
[5] = test system: Clostridium tyrobutyricum BZ15; assay: inhibition spectrum, agar diffusion method; type: cell-based
From the text: (§3) The antimicrobial activity of nisin Z was compared with that of nisin A. In this case, and for further comparisons of the two lantibiotics, use was made of preparations which had been purified with the aid of RP-HPLC [see above] and for which the precise amounts of lantibiotic had been determined by determining the absorption at 220 nm. […] The difference comprised both the shape and the gradient of the dose/response curve which relates the amount of lantibiotic added and the diameter of the inhibition zones. In this context it should be pointed out that nisin concentrations which are used in practice are always higher than 2.5 μg/ml [Delves-Broughton, Food Manufacture, March 1987 pp. 63-64]. so that measurements at lower concentrations are more of academic than of practical interest. […] Milk Dairy J., 15 (1961) 127-132]. […] A differentiation between these is made by determining the minimum inhibitory concentrations (MIC) of nisin Z and nisin A which effected growth inhibition in the case of the microorganisms used. In this determination use was also made of M. flavus DSM1719 and S. thermophilus Rs cultured at 37° C. in, respectively, nutrient broth (Difco) and whey permeate containing 0.2% yeast extract. Various amounts of nisin Z and nisin A were added to exponentially growing cultures of both organisms, after which the growth was compared with that of cultures to which no lantibiotic had been added.

[6] = test system: Bacillus cereus strains VC1, P7 and C5; assay: inhibition spectrum, agar diffusion method; type: cell-based
From the text: as §3

[7] = test system: Brevibacterium linens ATCC 9174; assay: inhibition spectrum, agar diffusion method; type: cell-based
From the text: as §3

[8] = test system: Listeria monocytogenes strain 1, 4B, 13 and 669; assay: inhibition spectrum, agar diffusion method; type: cell-based
From the text: as §3

[9] = test system: Lactococcus lactis subsp. cremoris BA3; assay: inhibition spectrum, agar diffusion method; type: cell-based
From the text: as §3

trypsin = assay: sensitivity for proteolytic enzymes (RP-HPLC integrity and residual activity); type: physicochemical; details: nisin Z versus nisin A
Experimental: (§4) The sensitivity of the lantibiotics for some proteolytic enzymes has been described [Hurst, see above]. The sensitivity of nisin Z and nisin A for the proteolytic enzymes trypsin and chymotrypsin were determined by determining the integrity and the biological residual activity of the lantibiotics with the aid of, respectively, RP-HPLC and the agar diffusion assay [see above] after incubation with one of these enzymes.

chymotrypsin = assay: as above; type: physicochemical; details: nisin Z versus nisin A
Experimental: as §4

[10] = test system: Micrococcus flavus DSM 1719; assay: agar diffusion bioassay, M. flavus as indicator; type: cell-based
Experimental: (§5) The strain NIZO 22186 was isolated from an industrially obtained fermented milk product and identified as a L. lactis strain which ferments sucrose and produces an antimicrobial activity in the culture medium. This antimicrobial activity was determined by the agar diffusion bioassay method [Tramer and Fowler, J. Sci. Food Agric. 15 (1964) 522-528] using Micrococcus flavus DSM 1719 cultured in nutrient broth(Difco) as indicator. The supernatant of a culture of strain […] cultured on lactose M17 medium (Difco) containing 0-5% sucrose or glucose contained an antimicrobial activity which, compared with strain NIZO R5 [Galesloot and Pette, Neth. […] The absorption was monitored at 220 nm. […] The purified peptide material from strain […] and purified commercial nisin A were then hydrolysed for 24 hours in 6N HCl at 110° C. under nitrogen, concentrated by freeze-drying and, after dissolving in 0.2M Na citrate buffer of pH 2.2, analyzed in a LKB 4151 amino acid analyser. […]
(§6) The antimicrobial activity of nisin Z was compared with that of nisin A. In this case, and for further comparisons of the two lantibiotics, use was made of preparations which had been purified with the aid of RP-HPLC [see above] and for which the precise amounts of lantibiotic had been determined by determining the absorption at 220 nm. […]

S. thermophilus Rs [11] = assay: agar diffusion bioassay, S. thermophilus Rs as indicator; type: cell-based; details: S. thermophilus Rs in TGV medium, versus nisin A
Experimental: as §5, §6

anti-nisin A antibodies = assay: competitive ELISA with anti-nisin A antibodies; type: binding
From the text: Because the only difference between nisin Z and nisin A consists in the His27Asn substitution, the agreement between nisin Z and nisin A in respect of proteolytic sensitivity for these two enzymes is easily explainable. However, there are significant differences in physicochemical characteristics between the two abovementioned lantibiotics.

Question: Which “minimum inhibitory concentration (MIC)” value (S. thermophilus Rs [1]) does the source give for `C=C(NC(=O)[C@@H](NC(=O)[C@H](Cc1c[nH]cn1)NC(=O)[C@@H](NC(=O)[C@H](CO)NC(=O)[C@@H]1CS[C@@H](C)[C@H]2NC(=O)[C@H](C)NC(=O)[C@H](NC(=O)[C@H](CCCCN)NC(=O)[C@H](CCSC)NC(=O)[C@H](CC(N)=O)NC(=O)[C@@H]3CS[C@@H](C)[C@@H](NC(=O)[C@H](CCCCN)NC(=O)[C@@H]4CS[C@@H](C)[C@@H](NC(=O)[C@@H]5CSC[C@@H](NC(=O)/C(=C/C)NC(=O)[C@@H](N)[C@@H](C)CC)C(=O)N[C@@H]([C@@H](C)CC)C(=O)NC(=C)C(=O)N[C@@H](CC(C)C)C(=O)N5)C(=O)N5CCC[C@H]5C(=O)NCC(=O)N4)C(=O)NCC(=O)N[C@@H](C)C(=O)N[C@@H](CC(C)C)C(=O)N[C@@H](CCSC)C(=O)NCC(=O)N3)[C@H](C)SC[C@H](NC2=O)C(=O)N[C@@H](CC(N)=O)C(=O)N1)[C@@H](C)CC)C(C)C)C(=O)N[C@@H](CCCCN)C(=O)O` [nisin Z] here?
Answer: The value was 30 ng/mL (≈ 0.00901 µM).

Question: What about the “minimum inhibitory concentration (MIC)” value (M. flavus DSM1719) of the same compound?
Answer: The value was 15 ng/mL (≈ 0.0045 µM).

Question: What about the “Minimum Inhibitory Concentration, S. thermophilus” value [2] of the same compound?
Answer: The value was 6 µg/L.

Question: And the “Minimum Inhibitory Concentration, B. cereus” value [3]?
Answer: The value was 130 µg/L.

Question: What about the “Minimum Inhibitory Concentration, Micrococcus flavus” value [4] of the same compound?
Answer: Its value is 11 µg/L.

Question: What about the “solubility compared with nisin A” value (solubility determination; alkaline pH) of the same compound?
Answer: The value was “greater than that of nisin A”.

Question: And the Solubility (solubility determination; pH 6.0)?
Answer: The Solubility was 2.6 mg/mL (≈ 781 µM).

Question: And the Solubility (solubility determination; pH 6.5)?
Answer: Its Solubility is 1.5 mg/mL (≈ 450 µM).

Question: And the Solubility (solubility determination; pH 7.0)?
Answer: The Solubility was 0.8 mg/mL (≈ 240 µM).

Question: And the Solubility (solubility determination; pH 7.5)?
Answer: The Solubility was 0.6 mg/mL (≈ 180 µM).

Question: What about the “antimicrobial activity (inhibition spectrum)” value [5] of the same compound?
Answer: The value was “comparably high antimicrobial activity”.

Question: And the “antimicrobial activity (inhibition spectrum)” value [6]?
Answer: Its value is “comparably high antimicrobial activity”.

Question: And the “antimicrobial activity (inhibition spectrum)” value [7]?
Answer: The value was “comparably high antimicrobial activity”.

Question: What about the “antimicrobial activity (inhibition spectrum)” value [8] of the same compound?
Answer: The value was “comparably high antimicrobial activity”.

Question: What about the “antimicrobial activity (inhibition spectrum)” value [9] of the same compound?
Answer: The value was “comparably high antimicrobial activity”.

Question: What about the sensitivity for trypsin (trypsin) of the same compound?
Answer: The sensitivity for trypsin was “comparable”.

Question: What about the sensitivity for chymotrypsin (chymotrypsin) of the same compound?
Answer: Its sensitivity for chymotrypsin is “comparable”.

Question: What about the “diffusion rate in an agar medium” value ([10]; compared with nisin A) of the same compound?
Answer: Its value is “higher diffusion rate”.

Question: What about the “zones of growth inhibition (diameter of halo)” value ([10]; concentrations above 0.03 μg/ml, versus same amount of nisin A) of the same compound?
Answer: The value was “always found to be greater than those obtained with the same amount of nisin A”.

Question: And the “zones of growth inhibition” value (S. thermophilus Rs [11])?
Answer: Its value is “Comparable results”.

Question: What about the “reaction in competitive ELISA” value (anti-nisin A antibodies) of the same compound?
Answer: Its value is “no reaction”.
